Test results published in US7759345B2, “Antitumoral derivatives of ET-743” (priority 2001, dated 2010).

Legend:
[1] = system: SK-MEL-28; experiment: Inhibition of cells growth by colorimetric assay (SRB), SK-MEL-28; assay type: cell-based; details: for GI50: read-out: MEL-28 GI50
How it was run: (§1)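 Growth inhibition is measured by sulforhodamine B staining of TCA-fixed cells after 48 h of compound exposure across 10 to 10^−8 μg/ml. Cells are seeded at 5×10^3 per well and grown drug-free for 18 h beforehand; absorbance at 490 nm yields GI, TGI and LC values.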

[2] = system: HT-29; experiment: Inhibition of cells growth by colorimetric assay (SRB), HT-29; assay type: cell-based; details: for GI50 / LC50 (concentration for 50% cell killing): Homo sapiens, HT-29, 48 h; for GI50 / HT-29 TGI: SRB assay, 48 hours exposure; for GI50: read-out: HT-29 GI50; for LC50 (concentration for 50% cell killing): read-out: HT-29 LC50, SRB assay, 48 hours exposure
How it was run: as §1

[3] = system: Kidney
From the text: (§9) Toxicity was asssessed by the methods reported in Toxicology in Vitro, 15 (2001) 571-577, J. Luber Narod et al.: “Evaluation of the use of in vitro methodolodies as tools for screening new compounds for potential in vivo toxicity”.

[4] = system: Liver
From the text: as §9

[5] = system: Skeletal
From the text: as §9

[6] = system: A-549; experiment: Inhibition of cells growth by colorimetric assay (SRB), A-549; assay type: cell-based; details: for GI50 / LC50 (concentration for 50% cell killing): Homo sapiens, A549, 48 h; for GI50 / A-549 TGI: SRB assay, 48 hours exposure; for GI50: read-out: A-549 GI50; for LC50 (concentration for 50% cell killing): read-out: A-549 LC50, SRB assay, 48 hours exposure
How it was run: as §1

[7] = system: IGROV-ET; experiment: Inhibition of cells growth by colorimetric assay (SRB), IGROV-ET; assay type: cell-based
Method: (§2) 2°.—Inhibition of Cells Growth by Colorimetric Assay.
(§3) A colorimetric type of assay, using sulforhodamine B (SRB) reaction has been adapted for a quantitative measurement of cell growth and viability [following the technique described by Philip Skehan, et al. (1990), New colorimetric cytotoxicity assay for anticancer drug screening, J. Natl. Cancer Inst., 82:1107-1112]
(§4) This form of the assay employs 96 well cell culture microplates of 9 mm diameter (Faircloth, 1988; Mosmann, 1983). Most of the cell lines are obtained from American Type Culture Collection (ATCC) derived from different human cancer types.
(§5) Cells are maintained in RPMI 1640 10% FBS, supplemented with 0.1 g/l penicillin and 0.1 g/l streptomycin sulfate and then incubated at 37° C., 5% CO2 and 98% humidity. For the experiments, cells were harvested from subconfluent cultures using trypsin and resuspended in fresh medium before plating.
(§6) Cells are seeded in 96 well microtiter plates, at 5×10^3 cells per well in aliquots of 195 μl medium, and they are allowed to attach to the plate surface by growing in drug free medium for 18 hours. Afterward, samples are added in aliquots of 5 μl in a ranging from 10 to 10^−8 μg/ml, dissolved in DMSO/EtOH/PBS (0.5:0.5:99). After 48 hours exposure, the antitumor effect are measured by the SRB methodology: cells are fixed by adding 50 μl of cold 50% (wt/vol) trichloroacetic acid (TCA) and incubating for 60 minutes at 4° C. Plates are washed with deionized water and dried. One hundred μl of SRB solution (0.4% wt/vol in 1% acetic acid) is added to each microtiter well and incubated for 10 minutes at room temperature. Unbound SRB is removed by washing with 1% acetic acid. Plates are air dried and bound stain is solubilized with Tris buffer. Optical densities are read on a automated spectrophotometric plate reader at a single wavelength of 490 nm.
(§7) The values for mean+/−SD of data from triplicate wells are calculated. Some parameters for cellular responses can be calculated: GI=growth inhibition, TGI=total growth inhibition (cytostatic effect) and LC=cell killing (cytotoxic effect).
(§8) Obtained results may predict the usefulness of a certain drug as a potential cancer treatment. For this technique, compounds which show GI50 values smaller than 10 μg/ml are selected to continue with further studies. GI50's data allow to predict that not only could a drug be cystostatic, but also it could have a potential in terms of tumor reduction.

[8] = system: K-562; experiment: Inhibition of cells growth by colorimetric assay (SRB), K-562; assay type: cell-based
Method: as §2, §3, §4, §5, §6, §7, §8

[9] = system: PANC-1; experiment: Inhibition of cells growth by colorimetric assay (SRB), PANC-1; assay type: cell-based
Method: as §2, §3, §4, §5, §6, §7, §8

[10] = system: SK-OV-3; experiment: Inhibition of cells growth by colorimetric assay (SRB), SK-OV-3; assay type: cell-based
Method: as §2, §3, §4, §5, §6, §7, §8

[11] = system: HMEC1; experiment: Inhibition of cells growth by colorimetric assay (SRB), HMEC1; assay type: cell-based
Method: as §2, §3, §4, §5, §6, §7, §8

[12] = system: LNCaP; experiment: Inhibition of cells growth by colorimetric assay (SRB), LNCaP; assay type: cell-based
Method: as §2, §3, §4, §5, §6, §7, §8

[13] = system: LoVo-Dox; experiment: Inhibition of cells growth by colorimetric assay (SRB), LoVo-Dox; assay type: cell-based
Method: as §2, §3, §4, §5, §6, §7, §8

[14] = system: IGROV-1; experiment: Inhibition of cells growth by colorimetric assay (SRB), IGROV-1; assay type: cell-based
Method: as §2, §3, §4, §5, §6, §7, §8

[15] = system: SK-BR-3; experiment: Inhibition of cells growth by colorimetric assay (SRB), SK-BR-3; assay type: cell-based
Method: as §2, §3, §4, §5, §6, §7, §8

[16] = system: LoVo; experiment: Inhibition of cells growth by colorimetric assay (SRB), LoVo; assay type: cell-based
Method: as §2, §3, §4, §5, §6, §7, §8

[17] = system: DU-145; experiment: Inhibition of cells growth by colorimetric assay (SRB), DU-145; assay type: cell-based
Method: as §2, §3, §4, §5, §6, §7, §8

[18] = Homo sapiens, SK-MEL-28, 48 h, SRB assay, 48 hours exposure

COc1cc2c(cc1O)CCN(C)[C@]21CS[C@@H]2c3c(OC(C)=O)c(C)c4c(c3[C@H](COC1=O)N1C2[C@@H]2N[C@@H](Cc3cc(C)c(OC)c(O)c32)[C@@H]1O)OCO4 (stereo partly shown) [Compound 217]
GI50 [1, 18]: 0.537 nM
GI50 [2]: 13.1 nM
LC50 (concentration for 50% cell killing) [2]: 13100 nM
HT-29 TGI [2]: 1.31E-05
Toxicity Data Kidney [3]: 2.66E-13
Toxicity Data Liver [4]: 1.07E-09
Toxicity Data Skeletal [5]: 3.37E-12
GI50 [6]: 2.1 nM
LC50 (concentration for 50% cell killing) [6]: 45.7 nM
A-549 TGI [6]: 6.16E-09

COc1cc2c(cc1O)CCN[C@]21CS[C@@H]2c3c(O)c(C)c4c(c3[C@H](COC1=O)N1C2[C@H]2c3c(cc(C)c(OC)c3O)C[C@@H]([C@@H]1O)N2C)OCO4 (stereo partly shown) [Et-701]
GI50 ([7]; Homo sapiens, 48 h, SRB assay, 48 hours exposure, read-out: IGROV-ET GI50): 16.4 nM
CC50 ([7]; Homo sapiens, 48 h, read-out: IGROV-ET LC50, SRB assay, 48 hours exposure): 3750 nM
IGROV-ET TGI ([7]; SRB assay, 48 hours exposure): 7.78E-08
GI50 ([8]; Homo sapiens, K562, 48 h, SRB assay, 48 hours exposure, read-out: K-562 GI50): 1.33 nM
LC50 (50% cell killing) ([8]; Homo sapiens, K562, 48 h, read-out: K-562 LC50, SRB assay, 48 hours exposure): 11.3 nM
K-562 TGI ([8]; SRB assay, 48 hours exposure): 3.50E-09
GI50 [1, 18]: 9.74 nM
CC50 ([1]; Homo sapiens, SK-MEL-28, 48 h, read-out: MEL-28 LC50, SRB assay, 48 hours exposure): 122 nM
MEL-28 TGI ([1]; SRB assay, 48 hours exposure): 3.50E-08
GI50 ([9]; Homo sapiens, PANC-1, 48 h, SRB assay, 48 hours exposure, read-out: PANC-1 GI50): 4.61 nM
LC50 (concentration for 50% net cell kill) ([9]; Homo sapiens, PANC-1, 48 h, read-out: PANC-1 LC50, SRB assay, 48 hours exposure): 206 nM
PANC-1 TGI ([9]; SRB assay, 48 hours exposure): 1.19E-08
GI50 ([10]; Homo sapiens, SK-OV-3, 48 h, SRB assay, 48 hours exposure, read-out: SK-OV3 GI50): 2.1 nM
LC50 ([10]; Homo sapiens, SK-OV-3, 48 h, read-out: SK-OV3 LC50, SRB assay, 48 hours exposure): 9850 nM
SK-OV3 TGI ([10]; SRB assay, 48 hours exposure): 1.08E-08
GI50 [2]: 4.24 nM
LC50 (concentration for 50% cell killing) [2]: 9560 nM
HT-29 TGI [2]: 3.72E-08
GI50 ([11]; Homo sapiens, HMEC-1, 48 h, SRB assay, 48 hours exposure, read-out: HMEC-1 GI50): 3.99 nM
LC50 ([11]; Homo sapiens, HMEC-1, 48 h, read-out: HMEC-1 LC50, SRB assay, 48 hours exposure): 4570 nM
HMEC-1 TGI ([11]; SRB assay, 48 hours exposure): 1.35E-08
GI50 ([12]; Homo sapiens, LNCaP, 48 h, read-out: LNCAP GI50, SRB assay, 48 hours exposure): 0.324 nM
CC50 ([12]; Homo sapiens, LNCaP, 48 h, read-out: LNCAP LC50, SRB assay, 48 hours exposure): 5.28 nM
LNCAP TGI ([12]; SRB assay, 48 hours exposure): 1.56E-09
GI50 ([13]; Homo sapiens, 48 h, SRB assay, 48 hours exposure, read-out: LOVO-DOX GI50): 50.6 nM
CC50 ([13]; Homo sapiens, 48 h, read-out: LOVO-DOX LC50, SRB assay, 48 hours exposure): 13900 nM
LOVO-DOX TGI ([13]; SRB assay, 48 hours exposure): 5.46E-07
GI50 ([14]; Homo sapiens, IGROV-1, 48 h, SRB assay, 48 hours exposure, read-out: IGROV GI50): 2.33 nM
CC50 ([14]; Homo sapiens, IGROV-1, 48 h, read-out: IGROV LC50, SRB assay, 48 hours exposure): 11.1 nM
IGROV TGI ([14]; SRB assay, 48 hours exposure): 5.08E-09
GI50 ([15]; Homo sapiens, SK-BR-3, 48 h, SRB assay, 48 hours exposure, read-out: SK-BR3 GI50): 2.21 nM
CC50 ([15]; Homo sapiens, SK-BR-3, 48 h, read-out: SK-BR3 LC50, SRB assay, 48 hours exposure): 27.5 nM
SK-BR3 TGI ([15]; SRB assay, 48 hours exposure): 6.25E-09
GI50 [6]: 2.99 nM
LC50 (concentration for 50% cell killing) [6]: 13.9 nM
A-549 TGI [6]: 7.06E-09
GI50 ([16]; Homo sapiens, LoVo, 48 h, SRB assay, 48 hours exposure, read-out: LOVO GI50): 4.56 nM
LC50 (concentration for 50% cell killing) ([16]; Homo sapiens, LoVo, 48 h, read-out: LOVO LC50, SRB assay, 48 hours exposure): 3750 nM
LOVO TGI ([16]; SRB assay, 48 hours exposure): 1.18E-08
GI50 ([17]; Homo sapiens, DU-145, 48 h, SRB assay, 48 hours exposure, read-out: DU-145 GI50): 4.04 nM
CC50 ([17]; Homo sapiens, DU-145, 48 h, read-out: DU-145 LC50, SRB assay, 48 hours exposure): 2970 nM
DU-145 TGI ([17]; SRB assay, 48 hours exposure): 9.70E-09
